# Assay results as given in PubChem BioAssay AID1963973 (Molecular Pharmacology Branch, DTP, NCI, 2024).
# System: 883617-216-R-J1-PDC tumor spheroids, viability
# Test: Anticancer human tumor 883617-216-R-J1-PDC patient-derived bladder carcinoma cell line growth inhibition [PI3K]
# Conditions: spheroids with HUVEC and MSC; for IC50: curve of first compound; for viability, T/C: stronger effect = lower value
# In short: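 Viability of mixed-cell spheroids was determined after exposure to pairwise combinations, one partner being inavolisib, alpelisib, duvelisib or copanlisib. Highest tested concentration matched clinical Cmax where known and 10 microM where not, descending in half-log steps.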
# 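Further: spheroids exposed to agents for 7 days before the viability read.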
smiles,measurement,setting,value
CC(C)n1nc(-c2ccc3oc(N)nc3c2)c2c(N)ncnc21 + Cc1nc(NC(=O)N2CCCC2C(N)=O)sc1-c1ccnc(C(C)(C)C(F)(F)F)c1,IC50,second compound 0.0316 µM,0.0183 µM
same,IC50,second compound 0.1 µM,0.0126 µM
same,IC50,second compound 0.316 µM,0.000358 µM
same,IC50,second compound 1 µM,< 0.000316 µM
same,IC50,second compound 3.16 µM,< 0.000316 µM
same,IC50,second compound 10 µM,< 0.000316 µM
same,"viability, T/C","second compound 0.0316 µM, first compound 0.000316 µM",79.6%
same,"viability, T/C","second compound 0.0316 µM, first compound 0.001 µM",72.5%
same,"viability, T/C","second compound 0.0316 µM, first compound 0.00316 µM",69.5%
same,"viability, T/C","second compound 0.0316 µM, first compound 0.01 µM",60.3%
same,"viability, T/C","second compound 0.0316 µM, first compound 0.0316 µM",41.1%
same,"viability, T/C","second compound 0.0316 µM, first compound 0.1 µM",18.4%
same,"viability, T/C","second compound 0.1 µM, first compound 0.000316 µM",61.9%
same,"viability, T/C","second compound 0.1 µM, first compound 0.001 µM",66.6%
same,"viability, T/C","second compound 0.1 µM, first compound 0.00316 µM",62.1%
same,"viability, T/C","second compound 0.1 µM, first compound 0.01 µM",52.9%
same,"viability, T/C","second compound 0.1 µM, first compound 0.0316 µM",35.5%
same,"viability, T/C","second compound 0.1 µM, first compound 0.1 µM",15.7%
same,"viability, T/C","second compound 0.316 µM, first compound 0.000316 µM",47.2%
same,"viability, T/C","second compound 0.316 µM, first compound 0.001 µM",54%
same,"viability, T/C","second compound 0.316 µM, first compound 0.00316 µM",45.2%
same,"viability, T/C","second compound 0.316 µM, first compound 0.01 µM",40.6%
same,"viability, T/C","second compound 0.316 µM, first compound 0.0316 µM",25.9%
same,"viability, T/C","second compound 0.316 µM, first compound 0.1 µM",12.7%
same,"viability, T/C","second compound 1 µM, first compound 0.000316 µM",29.1%
same,"viability, T/C","second compound 1 µM, first compound 0.001 µM",24.7%
same,"viability, T/C","second compound 1 µM, first compound 0.00316 µM",38.1%
same,"viability, T/C","second compound 1 µM, first compound 0.01 µM",22.4%
same,"viability, T/C","second compound 1 µM, first compound 0.0316 µM",16.4%
same,"viability, T/C","second compound 1 µM, first compound 0.1 µM",9.37%
same,"viability, T/C","second compound 3.16 µM, first compound 0.000316 µM",16%
same,"viability, T/C","second compound 3.16 µM, first compound 0.001 µM",15.7%
same,"viability, T/C","second compound 3.16 µM, first compound 0.00316 µM",12.4%
same,"viability, T/C","second compound 3.16 µM, first compound 0.01 µM",17.6%
same,"viability, T/C","second compound 3.16 µM, first compound 0.0316 µM",9.92%
same,"viability, T/C","second compound 3.16 µM, first compound 0.1 µM",4.95%
same,"viability, T/C","second compound 10 µM, first compound 0.000316 µM",7.13%
same,"viability, T/C","second compound 10 µM, first compound 0.001 µM",7.02%
same,"viability, T/C","second compound 10 µM, first compound 0.00316 µM",8.33%
same,"viability, T/C","second compound 10 µM, first compound 0.01 µM",6.52%
same,"viability, T/C","second compound 10 µM, first compound 0.0316 µM",5.75%
same,"viability, T/C","second compound 10 µM, first compound 0.1 µM",2.9%
Cn1cnc2c(F)c(Nc3ccc(Br)cc3Cl)c(C(=O)NOCCO)cc21 + CC(Nc1ccc2c(c1)OCCn1cc(N3C(=O)OCC3C(F)F)nc1-2)C(N)=O,IC50,second compound 0.00316 µM,0.0406 µM
same,IC50,second compound 0.01 µM,0.0349 µM
same,IC50,second compound 0.0316 µM,0.0103 µM
same,IC50,second compound 0.1 µM,0.0134 µM
same,IC50,second compound 0.316 µM,< 0.00949 µM
same,IC50,second compound 1 µM,< 0.00949 µM
same,"viability, T/C","second compound 0.00316 µM, first compound 0.00949 µM",64.5%
same,"viability, T/C","second compound 0.00316 µM, first compound 0.03 µM",57.4%
same,"viability, T/C","second compound 0.00316 µM, first compound 0.0949 µM",35.1%
same,"viability, T/C","second compound 0.00316 µM, first compound 0.3 µM",35.3%
same,"viability, T/C","second compound 0.00316 µM, first compound 0.949 µM",26.5%
same,"viability, T/C","second compound 0.00316 µM, first compound 3 µM",19.6%
same,"viability, T/C","second compound 0.01 µM, first compound 0.00949 µM",62.9%
same,"viability, T/C","second compound 0.01 µM, first compound 0.03 µM",47.3%
same,"viability, T/C","second compound 0.01 µM, first compound 0.0949 µM",45.9%
same,"viability, T/C","second compound 0.01 µM, first compound 0.3 µM",30.6%
same,"viability, T/C","second compound 0.01 µM, first compound 0.949 µM",26.8%
same,"viability, T/C","second compound 0.01 µM, first compound 3 µM",19.4%
same,"viability, T/C","second compound 0.0316 µM, first compound 0.00949 µM",51.8%
same,"viability, T/C","second compound 0.0316 µM, first compound 0.03 µM",36%
same,"viability, T/C","second compound 0.0316 µM, first compound 0.0949 µM",25%
same,"viability, T/C","second compound 0.0316 µM, first compound 0.3 µM",25.2%
same,"viability, T/C","second compound 0.0316 µM, first compound 0.949 µM",20.1%
same,"viability, T/C","second compound 0.0316 µM, first compound 3 µM",14.2%
same,"viability, T/C","second compound 0.1 µM, first compound 0.00949 µM",61.2%
same,"viability, T/C","second compound 0.1 µM, first compound 0.03 µM",21.9%
same,"viability, T/C","second compound 0.1 µM, first compound 0.0949 µM",23.4%
same,"viability, T/C","second compound 0.1 µM, first compound 0.3 µM",18%
same,"viability, T/C","second compound 0.1 µM, first compound 0.949 µM",16.7%
same,"viability, T/C","second compound 0.1 µM, first compound 3 µM",7.35%
same,"viability, T/C","second compound 0.316 µM, first compound 0.00949 µM",22.1%
same,"viability, T/C","second compound 0.316 µM, first compound 0.03 µM",16.2%
same,"viability, T/C","second compound 0.316 µM, first compound 0.0949 µM",10.5%
same,"viability, T/C","second compound 0.316 µM, first compound 0.3 µM",11.5%
same,"viability, T/C","second compound 0.316 µM, first compound 0.949 µM",8.13%
same,"viability, T/C","second compound 0.316 µM, first compound 3 µM",4.48%
same,"viability, T/C","second compound 1 µM, first compound 0.00949 µM",13.3%
same,"viability, T/C","second compound 1 µM, first compound 0.03 µM",9.92%
same,"viability, T/C","second compound 1 µM, first compound 0.0949 µM",7.16%
same,"viability, T/C","second compound 1 µM, first compound 0.3 µM",7.46%
same,"viability, T/C","second compound 1 µM, first compound 0.949 µM",6.08%
same,"viability, T/C","second compound 1 µM, first compound 3 µM",3.09%
